# Experimental data: PMC9860317, “Regulation of the DEAH/RHA helicase Prp43 by the G-patch factor Pfa1” (Proceedings of the National Academy of Sciences of the …, 2022)
# Assays:
# ctPrp43–Pfa1(gp) complex = target: T1, ctPrp43–Pfa1(gp) complex (Thermochaetoides thermophila, UniProt G0RY84); assay: coupled ATPase assay, NADH absorption, Michaelis-Menten titration; assay type: biochemical; details: with Pfa1(gp), no ssRNA
# T1 construct: gene CTHT_0005780; Prp43 with C-terminal His6 or Strep tag plus isolated G-patch motif of Pfa1; both from E. coli Rosetta II as GST fusions; borders in SI; with G-patch protein Pfa1 (G-patch motif)
# T1 sequence (G0RY84 entry or part of it, one chain of several): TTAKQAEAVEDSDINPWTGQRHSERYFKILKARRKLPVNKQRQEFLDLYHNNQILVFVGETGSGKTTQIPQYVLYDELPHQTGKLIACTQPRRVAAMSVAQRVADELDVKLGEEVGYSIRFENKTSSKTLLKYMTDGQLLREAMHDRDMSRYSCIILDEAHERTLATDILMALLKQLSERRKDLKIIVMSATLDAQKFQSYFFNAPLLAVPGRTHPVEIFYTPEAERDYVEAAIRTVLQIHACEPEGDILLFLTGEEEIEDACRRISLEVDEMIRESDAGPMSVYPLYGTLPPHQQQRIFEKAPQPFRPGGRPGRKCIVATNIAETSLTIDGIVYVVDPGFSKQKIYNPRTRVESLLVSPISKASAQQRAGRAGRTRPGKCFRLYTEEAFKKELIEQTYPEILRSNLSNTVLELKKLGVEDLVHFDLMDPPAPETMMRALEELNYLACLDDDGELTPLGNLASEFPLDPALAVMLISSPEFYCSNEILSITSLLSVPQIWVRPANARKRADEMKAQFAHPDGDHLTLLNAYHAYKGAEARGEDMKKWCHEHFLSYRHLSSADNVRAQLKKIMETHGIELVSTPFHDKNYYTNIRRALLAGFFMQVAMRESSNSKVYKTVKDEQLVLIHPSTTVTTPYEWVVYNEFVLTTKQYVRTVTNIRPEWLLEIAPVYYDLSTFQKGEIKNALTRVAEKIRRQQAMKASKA
# Text: coupled ATPase assay, NADH absorption, Michaelis-Menten titration on ctPrp43–Pfa1(gp) complex | showing the stimulation of Prp43 ATPase activity by Pfa1(gp) and ssRNA
# ctPrp43 (Prp43) = target: T2, ctPrp43 (Prp43) (Thermochaetoides thermophila, UniProt G0RY84); assay: as above; assay type: biochemical; details: no Pfa1(gp), no ssRNA
# T2 construct: gene CTHT_0005780; expressed in E. coli Rosetta II as N-terminal GST fusion with C-terminal His6 or Strep tag; SEC purified; borders in SI
# T2 sequence (G0RY84 entry or part of it): as the sequence (G0RY84 entry or part of it, one chain of several) above
# Text: coupled ATPase assay, NADH absorption, Michaelis-Menten titration on ctPrp43 (Prp43) | Michaelis–Menten titration and table with ATP turnover numbers (kcat) and dissociation constants (KM)
smiles,measurement,setting,value
Nc1ncnc2c1ncn2[C@@H]1O[C@H](COP(=O)(O)OP(=O)(O)OP(=O)(O)O)[C@@H](O)[C@H]1O [ATP],Km,ctPrp43–Pfa1(gp) complex,4.5 ± 0.3 µM
same,Km,ctPrp43 (Prp43),29.5 ± 6 µM
